# Reference: patent publication US7872014B2, “Anaplastic lymphoma kinase modulators and methods of use” (Exelixis, Inc., priority 2003, dated 2011)
# Target: T1, ALK (baculovirus expressed human ALK kinase domain F1098-K1410) (Homo sapiens, UniProt Q9UM73)
# T1 construct: baculovirus expressed human ALK kinase domain F1098-K1410; made in house
# Test: Luciferase-Coupled Chemiluminescent Kinase assay (LCCA), ALK biochemical activity
# Settings: inhibition of ALK; mean values; 1 μM ATP, 4 μM poly-AEKY, 12 nM ALK, 2 hours ambient temperature
# Summary of the method: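 Luciferase-coupled readout of ATP remaining after reaction of 12 nM ALK kinase domain with 1 μM ATP and 4 μM poly-AEKY, Tris-HCl pH 7.5 buffer with MgCl2 and MnCl2. Incubated 2 h at ambient temperature; inhibition derived from ATP consumption across serial compound dilutions.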
# T1 sequence (Q9UM73 1098-1410): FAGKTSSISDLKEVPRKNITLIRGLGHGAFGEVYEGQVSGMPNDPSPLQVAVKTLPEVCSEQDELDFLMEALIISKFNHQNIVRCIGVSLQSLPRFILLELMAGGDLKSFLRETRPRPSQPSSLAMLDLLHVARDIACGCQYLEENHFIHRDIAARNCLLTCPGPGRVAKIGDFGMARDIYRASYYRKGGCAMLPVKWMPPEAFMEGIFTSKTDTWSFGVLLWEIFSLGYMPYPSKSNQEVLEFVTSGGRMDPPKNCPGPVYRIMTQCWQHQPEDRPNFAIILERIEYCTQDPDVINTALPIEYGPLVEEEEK
row,IC50 [nM],SMILES
1,≤ 99,"CCN1CCC(COc2cc(F)c3c(-c4ccc(O)c(Cl)c4)nc4[nH]nc(C)c4c3c2OC)CC1 [Example 210, 2-chloro-4-[8-{[(1-ethylpiperidin-4-yl)methyl]oxy}-6-fluoro-1-methyl-9-(methyloxy)-3H-pyrazolo[3,4-c]isoquinolin-5-yl]phenol]"
2,100 to 999,"Cc1n[nH]c2nc(-c3nnc(N)s3)c3c(F)cc(O)c(F)c3c12 [Example 212, 5-(5-amino-1,3,4-thiadiazol-2-yl)-6,9-difluoro-1-methyl-3H-pyrazolo[3,4-c]isoquinolin-8-ol]"
3,≤ 99,"COc1c(OC[C@H](N)C(C)(C)C)cc(F)c2c(-c3ccc(O)c(Cl)c3)nc3[nH]nc(C)c3c12 [Example 213, 4-[8-{[(2R)-2-amino-3,3-dimethylbutyl]oxy}-6-fluoro-1-methyl-9-(methyloxy)-3H-pyrazolo[3,4-c]isoquinolin-5-yl]-2-chlorophenol]"
4,≤ 99,"COc1c(OCCN2CCN(CC(C)C)CC2)cc(F)c2c(-c3ccc(O)c(Cl)c3)nc3[nH]nc(C)c3c12 [Example 214, 2-chloro-4-[6-fluoro-1-methyl-9-(methyloxy)-8-({2-[4-(2-methylpropyl)piperazin-1-yl]ethyl}oxy)-3H-pyrazolo[3,4-c]isoquinolin-5-yl]phenol]"
5,≤ 99,"CCN1CC2CC1CN2CCOc1cc(F)c2c(-c3ccc(O)c(Cl)c3)nc3[nH]nc(C)c3c2c1OC (stereo not drawn) [Example 215, 2-chloro-4-[8-{[2-(5-ethyl-2,5-diazabicyclo[2.2.1]hept-2-yl)ethyl]oxy}-6-fluoro-1-methyl-9-(methyloxy)-3H-pyrazolo[3,4-c]isoquinolin-5-yl]phenol]"
6,≤ 99,"COc1c(OCCN2CCN(C(C)C)CC2)cc(F)c2c(-c3ccc(O)c(Cl)c3)nc3[nH]nc(C)c3c12 [Example 216, 2-chloro-4-[6-fluoro-1-methyl-8-({2-[4-(1-methylethyl)piperazin-1-yl]ethyl}oxy)-9-(methyloxy)-3H-pyrazolo[3,4-c]isoquinolin-5-yl]phenol]"
7,≤ 99,"COc1c(OCCN2C3CCC2CC(N)C3)cc(F)c2c(-c3ccc(O)c(Cl)c3)nc3[nH]nc(C)c3c12 (stereo not drawn) [Example 217, 4-[8-{[2-(3-amino-8-azabicyclo[3.2.1]oct-8-yl)ethyl]oxy}-6-fluoro-1-methyl-9-(methyloxy)-3H-pyrazolo[3,4-c]isoquinolin-5-yl]-2-chlorophenol]"
8,≤ 99,"CCN1CCC(CCOc2cc(F)c3c(-c4ccc(O)c(Cl)c4)nc4[nH]nc(C)c4c3c2OC)CC1 [Example 218, 2-chloro-4-[8-{[2-(1-ethylpiperidin-4-yl)ethyl]oxy}-6-fluoro-1-methyl-9-(methyloxy)-3H-pyrazolo[3,4-c]isoquinolin-5-yl]phenol]"
9,≤ 99,"CCN(CC)CCOc1cc(F)c2c(-c3ccc(O)c(Cl)c3)nc3[nH]nc(C)c3c2c1OC [Example 219, 2-chloro-4-[8-{[2-(diethylamino)ethyl]oxy}-6-fluoro-1-methyl-9-(methyloxy)-3H-pyrazolo[3,4-c]isoquinolin-5-yl]phenol]"
10,≤ 99,"COc1c(OCCN2CCCC2)cc(F)c2c(-c3ccc(Cl)c(O)c3)nc3[nH]nc(C)c3c12 [Example 220, 2-chloro-5-{6-fluoro-1-methyl-9-(methyloxy)-8-[(2-pyrrolidin-1-ylethyl)oxy]-3H-pyrazolo[3,4-c]isoquinolin-5-yl}phenol]"
11,1000 to 2000,"Cc1n[nH]c2nc(-c3cn(C)c(=N)s3)c3c(F)cc(O)c(F)c3c12 [Example 221, 6,9-difluoro-5-(2-imino-3-methyl-2,3-dihydro-1,3-thiazol-5-yl)-1-methyl-3H-pyrazolo[3,4-c]isoquinolin-8-ol]"
12,≤ 99,"COc1c(OC2CC3CCC(C2)N3C)cc(F)c2c(-c3ccc(O)c(Cl)c3)nc3[nH]nc(C)c3c12 (stereo not drawn) [Example 223, 2-chloro-4-[6-fluoro-1-methyl-8-[(8-methyl-8-azabicyclo[3.2.1]oct-3-yl)oxy]-9-(methyloxy)-3H-pyrazolo[3,4-c]isoquinolin-5-yl]phenol]"
